For 19 compounds, IC50 results are on record in patent publication US20250129021A1, “SMALL MOLECULE PROTEIN SYNTHESIS MODULATORS” (Interdict Bio, Inc., priority 2023, published 2025).

In general, pIC50 refers to the negative decadic logarithm of the IC50, by convention in mol/L.

SMILES strings stand for the structures. pIC50: −log10 of the molar value.

Holding throughout (assay type): biochemical
One experiment has as its system MYC. The experiment can be described thus: In vitro transcription-translation (IVTT) assay, MYC reporter. Conditions: IVTT assay, HeLa S3 lysate, MYC reporter, normalized sfGFP/mCherry ratio; half-log dilutions 30 μM-0.1 μM, 2 hrs at 30° C. In a few lines: (§1)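 Reporter: mCherry, P2A, then 3×FLAG-target peptide-sfGFP fusion, IRES-initiated; HeLa S3 lysate IVTT; cpd dilutions 30 μM−0.1 μM half-log in 100% DMSO (dilution-plate conc); DNA added last; 2 h, 30° C; PBS quench.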

The test system of the next experiment is CCND1. The experiment can be described thus: In vitro transcription-translation (IVTT) assay, CCND1 reporter. The settings on record: IVTT assay, HeLa S3 lysate, sfGFP/mCherry ratio. In a few lines:
as §1

A further experiment concerns MCL-1. The experiment can be described thus: In vitro transcription-translation (IVTT) assay, MCL-1 reporter. The settings on record: IVTT assay, HeLa S3 lysate, sfGFP/mCherry ratio; read-out: MCL1 IC50. An outline of the steps: as §1
In a further experiment the test system is CCNTB1. The experiment can be described thus: In vitro transcription-translation (IVTT) assay, CCNTB1 reporter. The settings on record: HeLa S3 lysate, sfGFP/mCherry ratio. As for the experimental part:
In vitro transcription-translation assay setup: Each assay includes a master mix containing lysate and shared components, a 96-well plate containing compound titrations for testing, a 96-well DNA plate with reporter constructs to be tested, 96-well skirted PCR plates, and 96-well flat-bottom, black, fluorescent assay plates. Reaction materials setup: (A) Master mix—15 mL conical tube (3 mL of HeLa S3 Lysate described above; 0.6 mL of ThermoFisher Accessory Proteins (#88882); 1.2 ml of ThermoFisher Reaction Mix (#88882); 0.54 mL of nuclease-free Water); (B) 96-Well Master Mix+Compound Plate (Half-log dilutions (30 μM−0.1 μM) of 4 compounds of interest are prepared in 100% DMSO); 96-Well DNA Plate (Five DNA constructs are plated into single columns within the plate. Row 1 of the column contains nuclease free H2O, all other wells contain 110 ng/μL plasmid DNA). Reactions are started by mixing 155 μL of master mix and 3.5 μL of compound serial dilutions, then 9.1 μL of master mix+compound mixture is aliquoted across 5 96-well plates. Reactions begin with final addition of 2 μL of DNA for a 11.1 μL reaction volume in each well. The entire plate is sealed, and incubated for 2 hrs at 30° C. After 2 hrs, quench the assay using 45 μL of PBS, and transfer 50 μL to a flat-bottom black microplate Quantify the sfGFP and mCherry signals from each well on each plate, taking 3 reads of each plate, and perform data analysis below.
In vitro transcription-translation assay data analysis: Each plate is read three times in channels for both sfGFP and mCherry signals. The average signal across these 3 reads is then calculated for further analysis. Control wells containing no DNA reporter are subtracted from reporter wells in the same column to remove auto-fluorescence of the lysate. Then, the ratio of sfGFP/mCherry is calculated per well, and these ratios are averaged across the triplicate experiments on the same plate. Finally, the ratio of each titration concentration is normalized to the no drug control to create the normalized stalling metric. The error on this measurement is determined by propagating error through the averaging and normalization steps. Values are plotted and fit for IC50 determination for each test sequence and titration of compound.

Consider `O=C(NCc1ccc2c(c1)CCNC2)O[C@@H]1[C@@H](O)CN[C@@H]1Cc1ccc(-c2cnco2)cc1` [V192056, (2R,3S,4S)-4-hydroxy-2-{[4-(1,3-oxazol-5-yl)phenyl]methyl}pyrrolidin-3-yl N-(1,2,3,4-tetrahydroisoquinolin-6-ylmethyl)carbamate], for which the negative logarithm of the IC50 (pIC50) in the experiment with MYC, in the experiment with CCND1, in the experiment with MCL-1 and with CCNTB1 was greater than 5.00 in each case.

With `COc1ccc(C[C@H]2NC[C@H](O)[C@H]2OC(=O)NCc2ccnc(N3CC(F)(F)C3)c2)cc1` [V192066, (2R,3S,4S)-4-hydroxy-2-[(4-methoxyphenyl)methyl]pyrrolidin-3-yl N-{[2-(3,3-difluoroazetidin-1-yl)pyridin-4-yl]methyl}carbamate], the pIC50 was greater than 5.00 in the experiment on MYC, greater than 5.00 in the experiment on CCND1, greater than 5.00 in the experiment on MCL-1 and 4.70 to 5.00 in the experiment on CCNTB1.

Take `O=C(NCC[C@H]1CCCN1)O[C@@H]1[C@@H](O)CN[C@@H]1Cc1ccc(-c2cnco2)cc1` [V192048, (2R,3S,4S)-4-hydroxy-2-{[4-(1,3-oxazol-5-yl)phenyl]methyl}pyrrolidin-3-yl N-{2-[(2R)-pyrrolidin-2-yl]ethyl}carbamate]: the negative logarithm of the IC50 (pIC50) in the experiment on MYC, in the experiment with CCND1, in the experiment with MCL-1 and in the experiment on CCNTB1 was greater than 5.00 in each case.

With `O=C(NCCC1CCNCC1)O[C@@H]1[C@@H](O)CN[C@@H]1Cc1ccc(-c2ccccc2)cc1` [V192050, (2R,3S,4S)-2-{[1,1′-biphenyl]-4-ylmethyl}-4-hydroxypyrrolidin-3-yl N-[2-(piperidin-4-yl)ethyl]carbamate], the pIC50 in the experiment on MYC is 4.70 to 5.00; in the experiment on CCND1 it was less than 4.52; with MCL-1, 4.70 to 5.00; with CCNTB1, 4.70 to 5.00.

As for `O=C(NCc1cccc(F)c1)O[C@@H]1[C@@H](O)CN[C@@H]1Cc1ccc(-c2cn3ccccc3n2)cc1` [V192139], the pIC50 in the experiment with MYC, in the experiment with CCND1, with MCL-1 and in the experiment on CCNTB1 was greater than 5.00 in each case.

`COc1ccc(C[C@H]2NC[C@H](O)[C@H]2OC(=O)NCCC2(N)CC2)cc1` [V191989, (2R,3S,4S)-4-hydroxy-2-(4-methoxybenzyl)pyrrolidin-3-yl (2-(1-aminocyclopropyl)ethyl)carbamate]: the pIC50 in the experiment on MYC, in the experiment with CCND1 and with CCNTB1 was greater than 5.00 throughout.

Take `COc1ccc(C[C@H]2NC[C@H](O)[C@H]2OC(=O)NCC[C@H]2CCC3(CC3)N2)cc1` [V192043, (2R,3S,4S)-4-hydroxy-2-[(4-methoxyphenyl)methyl]pyrrolidin-3-yl N-{2-[(5R)-4-azaspiro[2.4]heptan-5-yl]ethyl}carbamate]: the negative logarithm of the IC50 (pIC50) in the experiment with MYC, with CCND1, with MCL-1 and in the experiment on CCNTB1 was less than 4.52 throughout.

Take `COc1ccc(C[C@H]2NC[C@H](O)[C@H]2OC(=O)NCCN2CCCS2(=O)=O)cc1` [V191944, (2R,3S,4S)-4-hydroxy-2-[(4-methoxyphenyl)methyl]pyrrolidin-3-yl N-[2-(1,1-dioxo-1lambda6,2-thiazolidin-2-yl)ethyl]carbamate]: the pIC50 in the experiment on MYC was greater than 5.00; with CCND1, 4.70 to 5.00; in the experiment on MCL-1, greater than 5.00; in the experiment on CCNTB1, greater than 5.00.

Take `O=C(NCC[C@@H]1CCCN1)O[C@@H]1[C@@H](O)CN[C@@H]1Cc1ccc(-c2ccc3c(c2)CC(F)(F)C3)cc1` [V191961, (2R,3S,4S)-2-{[4-(2,2-difluoro-1,3-dihydroinden-5-yl)phenyl]methyl}-4-hydroxypyrrolidin-3-yl N-{2-[(2S)-pyrrolidin-2-yl]ethyl}carbamate]: the negative-log IC50 (pIC50) in the experiment with MYC was 4.70 to 5.00; in the experiment with CCND1, 4.70 to 5.00; in the experiment with MCL-1, greater than 5.00; in the experiment with CCNTB1 it was greater than 5.00.

As to `COc1ccc(C[C@H]2NC[C@H](O)[C@H]2OC(=O)NCC[C@@H]2CC(F)(F)CN2)cc1` [V190526, (2R,3S,4S)-4-hydroxy-2-[(4-methoxyphenyl)methyl]pyrrolidin-3-yl N-{2-[(2R)-4,4-difluoropyrrolidin-2-yl]ethyl}carbamate], the pIC50 in the experiment with MYC was 4.70 to 5.00; in the experiment with CCND1 it was less than 4.52; with MCL-1, 4.70 to 5.00; in the experiment on CCNTB1, greater than 5.00.

Turning to `O=C(NCc1ccccc1)O[C@@H]1[C@@H](O)CN[C@@H]1Cn1cccn1` [V188209, (2R,3S,4S)-4-hydroxy-2-(pyrazol-1-ylmethyl)pyrrolidin-3-yl N-benzylcarbamate], the pIC50 with MYC, in the experiment on CCND1, in the experiment on MCL-1 and in the experiment on CCNTB1 was less than 4.52 each time.

In the case of `COc1ccc(C[C@H]2NC[C@H](O)[C@H]2OC(=O)NCc2cc(F)c(O)c(F)c2)cc1` [V191939, (2R,3S,4S)-4-hydroxy-2-[(4-methoxyphenyl)methyl]pyrrolidin-3-yl N-[(3,5-difluoro-4-hydroxyphenyl)methyl]carbamate], the pIC50 in the experiment with MYC was 4.70 to 5.00; in the experiment on CCND1, 4.70 to 5.00; in the experiment with MCL-1, greater than 5.00; in the experiment on CCNTB1, greater than 5.00.

For the compound `COc1ccc(C[C@H]2NC[C@H](O)[C@H]2OC(=O)NCC[C@H]2CCCN2C)cc1` [V192042, (2R,3S,4S)-4-hydroxy-2-[(4-methoxyphenyl)methyl]pyrrolidin-3-yl N-{2-[(2R)-1-methylpyrrolidin-2-yl]ethyl}carbamate], the negative-log IC50 (pIC50) in the experiment on MYC was less than 4.52; with CCND1 it was less than 4.52; in the experiment on MCL-1, less than 4.52; in the experiment with CCNTB1, 4.52 to 4.70.

On to `COc1ccc(C[C@H]2NC[C@H](O)[C@H]2OC(=O)NCc2ccnc(N3CCC3)n2)cc1` [V192073, (2R,3S,4S)-4-hydroxy-2-[(4-methoxyphenyl)methyl]pyrrolidin-3-yl N-{[2-(azetidin-1-yl)pyrimidin-4-yl]methyl}carbamate], for which the pIC50 in the experiment on MYC, in the experiment on CCND1, in the experiment with MCL-1 and in the experiment on CCNTB1 was greater than 5.00 in each case.

On to `O=C(NCc1cccc(F)c1)O[C@@H]1[C@@H](O)CN[C@@H]1Cc1ccc(-c2ccc3ncsc3c2)cc1` [V192103, (2R,3S,4S)-2-{[4-(1,3-benzothiazol-6-yl)phenyl]methyl}-4-hydroxypyrrolidin-3-yl N-[(3-fluorophenyl)methyl]carbamate], for which the pIC50 in the experiment on MYC was greater than 5.00; with CCND1, 4.70 to 5.00; with MCL-1 it was greater than 5.00; in the experiment on CCNTB1, greater than 5.00.

As for `O=C(NCC[C@H]1CCCN1)O[C@@H]1[C@@H](O)CN[C@@H]1Cc1ccc(-c2ccccc2)cc1` [V192036, (2R,3S,4S)-2-{[1,1′-biphenyl]-4-ylmethyl}-4-hydroxypyrrolidin-3-yl N-{2-[(2R)-pyrrolidin-2-yl]ethyl}carbamate], the negative-log IC50 (pIC50) in the experiment on MYC is greater than 5.00; in the experiment on CCND1 it was 4.70 to 5.00; in the experiment on CCNTB1, greater than 5.00.

As for `O=C(NCC[C@H]1CCCN1)O[C@@H]1[C@@H](O)CN[C@@H]1Cc1ccc(-c2ccc(C(F)(F)F)cc2)cc1` [V192038, (2R,3S,4S)-4-hydroxy-2-{[4′-(trifluoromethyl)-[1,1′-biphenyl]-4-yl]methyl}-pyrrolidin-3-yl N-{2-[(2R)-pyrrolidin-2-yl]ethyl}carbamate; Trifluoroacetic Acid], the pIC50 in the experiment with MYC, in the experiment on CCND1 and with CCNTB1 was less than 4.52 throughout.

Regarding `O=C(NCC[C@H]1CCCN1)O[C@@H]1[C@@H](O)CN[C@@H]1Cc1ccc(-c2ccc(F)c(F)c2)cc1` [V192037, (2R,3S,4S)-2-({3′,4′-difluoro-[1,1′-biphenyl]-4-yl}methyl)-4-hydroxypyrrolidin-3-yl N-{2-[(2R)-pyrrolidin-2-yl]ethyl}carbamate], the pIC50 is 4.70 to 5.00 in the experiment on MYC and greater than 5.00 in the experiment on CCNTB1.

Regarding `O=C(NCC[C@H]1CCCN1)O[C@@H]1[C@@H](O)CN[C@@H]1Cc1ccc(-c2ccc(S(F)(F)(F)(F)F)cc2)cc1` [V192039, (2R,3S,4S)-4-hydroxy-2-{[4′-(pentafluoro-lambda6-sulfanyl)-[1,1′-biphenyl]-4-yl]methyl}pyrrolidin-3-yl N-{2-[(2R)-pyrrolidin-2-yl]ethyl}carbamate], the pIC50 with MYC, with CCND1 and with CCNTB1 was less than 4.52 each time.
